Measured values: ChEMBL document CHEMBL5352417, “Design, synthesis, and biological evaluation of aromatic tertiary amine derivatives as selective butyrylcholinesterase inhibitors for the treatment of Alzheimer's disease” (Eur J Med Chem, 2022)
The source made the active and inactive calls. No cut-off for these calls is given here.

Experiments:
[1] = Neurotoxicity against human SH-SY5Y cells assessed as survival rate incubated for 24 hrs by MTT assay relative to control; type: toxicity, cell-based; set-up: concentration or dose not given beside the values; details: read-out: Survival
[2] = Neurotoxicity against rat PC12 cells assessed as survival rate incubated for 24 hrs by MTT assay relative to control; type: toxicity, cell-based, PC-12; set-up: concentration or dose not given beside the values; details: read-out: Survival
[3] = molecular target: Acetylcholinesterase (Electrophorus electricus) (UniProt O42275); test: Inhibition of electric eel AchE using acetylthiocholine iodide as substrate at <10 uM measured for 3 mins by Ellman's method relative to control
Chain of Acetylcholinesterase (Electrophorus electricus) (O42275 24-633 limits assumed): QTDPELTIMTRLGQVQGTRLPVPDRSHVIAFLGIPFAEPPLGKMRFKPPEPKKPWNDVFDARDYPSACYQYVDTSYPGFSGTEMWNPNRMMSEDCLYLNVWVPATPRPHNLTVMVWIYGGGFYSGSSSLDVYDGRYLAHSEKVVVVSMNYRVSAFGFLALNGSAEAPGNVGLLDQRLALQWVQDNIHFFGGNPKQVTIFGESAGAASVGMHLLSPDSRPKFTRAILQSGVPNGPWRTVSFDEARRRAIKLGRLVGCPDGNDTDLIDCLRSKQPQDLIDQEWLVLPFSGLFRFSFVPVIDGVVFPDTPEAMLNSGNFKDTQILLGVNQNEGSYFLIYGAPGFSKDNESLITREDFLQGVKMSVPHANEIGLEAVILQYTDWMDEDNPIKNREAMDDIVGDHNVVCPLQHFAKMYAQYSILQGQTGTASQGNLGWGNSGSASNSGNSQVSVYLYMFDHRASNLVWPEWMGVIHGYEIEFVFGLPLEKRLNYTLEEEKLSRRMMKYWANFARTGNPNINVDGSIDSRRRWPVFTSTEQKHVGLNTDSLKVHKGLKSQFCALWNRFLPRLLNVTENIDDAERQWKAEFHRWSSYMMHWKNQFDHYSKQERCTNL

[4] = molecular target: Cholinesterase (Equus caballus, UniProt P81908); test: Inhibition of horse serum BuChE using butyrylthiocholine iodide as substrate measured for 3 mins by Ellman's method; type: cell-free
Chain of Cholinesterase (Equus caballus, UniProt P81908) (P81908 whole entry): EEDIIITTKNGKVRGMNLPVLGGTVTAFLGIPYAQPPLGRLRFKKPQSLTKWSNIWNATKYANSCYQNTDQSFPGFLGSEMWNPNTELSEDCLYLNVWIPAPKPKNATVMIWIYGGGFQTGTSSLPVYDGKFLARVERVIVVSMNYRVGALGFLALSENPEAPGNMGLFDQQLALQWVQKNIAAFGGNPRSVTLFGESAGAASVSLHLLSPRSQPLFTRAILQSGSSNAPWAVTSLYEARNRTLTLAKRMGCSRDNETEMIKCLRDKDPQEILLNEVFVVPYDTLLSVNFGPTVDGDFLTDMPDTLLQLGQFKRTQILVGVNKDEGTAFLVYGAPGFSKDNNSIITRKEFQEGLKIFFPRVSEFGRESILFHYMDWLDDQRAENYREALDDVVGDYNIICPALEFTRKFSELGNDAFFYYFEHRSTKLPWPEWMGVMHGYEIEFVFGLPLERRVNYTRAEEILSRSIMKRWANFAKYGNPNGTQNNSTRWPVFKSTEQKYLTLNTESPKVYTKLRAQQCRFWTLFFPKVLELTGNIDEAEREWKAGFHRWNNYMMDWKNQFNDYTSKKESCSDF

[5] = Neurotoxicity against mouse HT-22 cells assessed as survival rate incubated for 24 hrs by MTT assay relative to control; type: toxicity, cell-based; set-up: concentration or dose not given beside the values; details: read-out: Survival
[6] = molecular target: Cholinesterase (Equus caballus) (UniProt P81908); test: Inhibition of horse serum BuChE using butyrylthiocholine iodide as substrate at <10 uM measured for 3 mins by Ellman's method relative to control; type: cell-free
Chain of Cholinesterase (Equus caballus) (P81908 whole entry): as above

[7] = Neurotoxicity against mouse BV-2 cells incubated for 24 hrs by MTT assay; type: toxicity, cell-based; details: read-out: LD50
[8] = Effective permeability of compound at 25 ug/ml incubated for 18 hrs by PAMPA-BBB assay; type: ADME; details: dose 25 µg/ml, read-out: Peff
[9] = Neurotoxicity against mouse HT-22 cells incubated for 24 hrs by MTT assay; type: toxicity, cell-based; details: read-out: LD50
[10] = molecular target: Cholinesterase (Homo sapiens, UniProt P06276); test: Inhibition of human BChE using butyrylthiocholine iodide as substrate measured for 3 mins by Ellman's method
Chain of Cholinesterase (Homo sapiens, UniProt P06276) (P06276 whole entry): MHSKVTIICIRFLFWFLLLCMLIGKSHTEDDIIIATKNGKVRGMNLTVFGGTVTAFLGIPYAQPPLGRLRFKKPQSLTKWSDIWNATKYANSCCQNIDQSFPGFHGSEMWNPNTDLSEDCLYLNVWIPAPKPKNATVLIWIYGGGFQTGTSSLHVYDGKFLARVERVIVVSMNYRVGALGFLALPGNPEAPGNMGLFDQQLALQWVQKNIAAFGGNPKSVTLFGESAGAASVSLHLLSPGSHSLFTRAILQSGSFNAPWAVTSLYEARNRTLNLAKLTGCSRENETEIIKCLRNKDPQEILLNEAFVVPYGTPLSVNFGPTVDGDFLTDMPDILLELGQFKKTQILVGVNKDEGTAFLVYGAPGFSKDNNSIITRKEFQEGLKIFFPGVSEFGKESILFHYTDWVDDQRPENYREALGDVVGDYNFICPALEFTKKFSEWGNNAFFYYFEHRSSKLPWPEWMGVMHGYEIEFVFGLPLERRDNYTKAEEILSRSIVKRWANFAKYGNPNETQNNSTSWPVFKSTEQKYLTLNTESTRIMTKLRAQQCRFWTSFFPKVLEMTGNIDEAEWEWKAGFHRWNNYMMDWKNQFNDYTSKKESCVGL

[11] = Neurotoxicity against human SH-SY5Y cells incubated for 24 hrs by MTT assay; type: toxicity, cell-based; details: read-out: LD50
[12] = tested on: SH-SY5Y; test: Neuroprotective activity against amyloid beta (1 to 42)-induced injury in human SH-SY5Y cells assessed as cell viability at 0.5 to 50 uM by MTT assay; type: functional, cell-based; details: dose 0.5-50 µM
[13] = Neurotoxicity against rat PC12 cells incubated for 24 hrs by MTT assay; type: toxicity, cell-based, PC-12; details: read-out: LD50
[14] = tested on: Mus musculus; test: Antialzheimer activity against amyloid beta (1 to 42)-induced mouse model of cognitive dysfunction assessed as latency time at 15 mg/kg, po measured for 14 days by Morris Water maze method; type: functional, ICR; details: time 14 day
[15] = tested on: Mus musculus; test: Antialzheimer activity against amyloid beta (1 to 42)-induced mouse model of cognitive dysfunction assessed as reaching target platform at 15 mg/kg, po measured for 14 days by Morris Water maze method; type: functional, organism-based; details: ICR, time 14.0 day
[16] = tested on: Mus musculus; test: Antialzheimer activity against amyloid beta (1 to 42)-induced mouse model of cognitive dysfunction assessed as reduction in latency time at 15 mg/kg, po measured for 14 days by Morris Water maze method; type: functional, organism-based; details: ICR, time 14.0 day
[17] = molecular target: Cholinesterase (Mus musculus, UniProt Q03311)
Chain of Cholinesterase (Mus musculus, UniProt Q03311) (Q03311 whole entry): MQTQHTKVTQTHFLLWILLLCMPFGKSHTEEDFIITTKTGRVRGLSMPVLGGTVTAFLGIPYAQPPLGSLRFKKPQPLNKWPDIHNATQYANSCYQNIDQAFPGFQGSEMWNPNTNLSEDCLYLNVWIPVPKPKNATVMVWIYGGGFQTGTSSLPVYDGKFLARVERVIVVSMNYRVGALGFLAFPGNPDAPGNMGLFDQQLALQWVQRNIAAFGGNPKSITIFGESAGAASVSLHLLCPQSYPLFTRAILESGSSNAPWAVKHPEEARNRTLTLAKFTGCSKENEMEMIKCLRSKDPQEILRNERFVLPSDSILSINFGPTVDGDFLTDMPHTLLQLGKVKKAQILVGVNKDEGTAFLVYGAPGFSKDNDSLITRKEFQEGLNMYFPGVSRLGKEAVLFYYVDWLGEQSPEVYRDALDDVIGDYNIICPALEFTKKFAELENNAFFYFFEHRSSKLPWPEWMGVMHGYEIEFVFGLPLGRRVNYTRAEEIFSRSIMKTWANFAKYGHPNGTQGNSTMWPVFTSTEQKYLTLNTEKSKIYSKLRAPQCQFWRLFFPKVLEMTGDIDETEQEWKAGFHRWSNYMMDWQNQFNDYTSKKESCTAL
Description: Inhibition of mouse BChE by Ellman's method

Row | SMILES | inhibition [3] [%] | IC50 [4] [µM] | inhibition [6] [%] | further results
1 | O=C(CN(Cc1ccc2ccccc2c1)Cc1ccco1)Nc1ccccc1 | 16.9 | 2.26 | 62.9 | viability at 24 h [1]: 90.7%; viability at 24 h [2]: 100%; viability at 24 h [5]: 86.5%; CC50 at 24 h [7]: 14 µM; Papp at 18 h, 25 ug/ml [8]: 78.1 nm/s
2 | COc1cccc(NC(=O)CN(Cc2ccccc2)Cc2ccco2)c1 | 9.2 | 24.8 | 50.1 | 
3 | O=C(CN(Cc1ccccc1)Cc1ccco1)Nc1cnc2ccccc2c1 | 13.2 | 27.9 | 29.6 | 
4 | CCN(CC)CCN(CC(=O)Nc1ccccc1C)Cc1ccc2ccccc2c1 | 20.1 | 1.45 | 85.6 | CC50 at 24 h [9]: 85.1 µM; IC50 [10]: 0.29 µM; CC50 at 24 h [7]: 24.2 µM; CC50 at 24 h [11]: 50.8 µM; Activity [12]: inactive; Papp at 18 h, 25 ug/ml [8]: 106 nm/s; CC50 at 24 h [13]: 40.6 µM
5 | O=C(CN(Cc1ccccc1)Cc1ccco1)Nc1ccc2c(c1)OCO2 | 15.2 | 8.26 | 57.3 | 
6 | CCCN(CC(=O)Nc1ccccc1C)Cc1ccc2ccccc2c1 | 22.9 | 0.19 | 91.3 | viability at 24 h [1]: 52.8%; viability at 24 h [5]: 51.6%; IC50 [10]: 0.027 µM; CC50 at 24 h [7]: 17.6 µM; Papp at 18 h, 25 ug/ml [8]: 120 nm/s; CC50 at 24 h [13]: 45.9 µM
7 | O=C(CN(Cc1ccccc1)Cc1ccco1)Nc1ccccc1 | 12.6 | 15.4 | 39.6 | 
8 | CN(C)CCCN1c2ccccc2Sc2ccc(Cl)cc21 [CHLORPROMAZINE] |  |  |  | Papp at 18 h, 25 ug/ml [8]: 66.9 nm/s
9 | COc1ccccc1NC(=O)CN(Cc1ccccc1)Cc1ccco1 | 14.7 | 26.4 | 44.2 | 
10 | Cc1cccc(NC(=O)CN(Cc2ccccc2)Cc2ccco2)c1 | 13.3 | 7.33 | 57.8 | 
11 | O=C(CN(Cc1ccco1)Cc1c[nH]c2ccccc12)Nc1ccccc1 | 26.2 | 2.14 | 65.3 | CC50 at 24 h [9]: 59.6 µM; CC50 at 24 h [7]: 27.5 µM; CC50 at 24 h [11]: 42.2 µM; Papp at 18 h, 25 ug/ml [8]: 73 nm/s; CC50 at 24 h [13]: 40.4 µM
12 | O=C(CN(Cc1ccccc1)Cc1ccco1)Nc1ccc2ccccc2c1 | 13.9 | 9.77 | 50.4 | 
13 | O=C(CN(Cc1ccccc1)Cc1ccco1)Nc1cccc(Cl)c1 | 19.6 | 47.4 | 42.8 | 
14 | O=C(CN(Cc1ccccc1)Cc1ccco1)Nc1cccc2ccccc12 | 13.6 | 3.53 | 63 | 
15 | CCCN(CCCc1ccccc1)Cc1ccc2ccccc2c1 | 21.4 | 1.45 | 80.3 | CC50 at 24 h [9]: 54.6 µM; viability at 24 h [1]: 62.6%; IC50 [10]: 0.03 µM; CC50 at 24 h [7]: 29 µM; Papp at 18 h, 25 ug/ml [8]: 104 nm/s; CC50 at 24 h [13]: 77.8 µM
16 | Cc1ccccc1NC(=O)CN(Cc1ccc2ccccc2c1)C1CCCCC1 | 25.3 | 4.26 | 57.5 | 
17 | COc1ccc(NC(=O)CN(Cc2ccccc2)Cc2ccco2)cc1 | 18.2 | 121 | 21.6 | 
18 | O=C(CN(Cc1ccco1)Cc1ccccc1[N+](=O)[O-])Nc1ccccc1 | 15.8 | 1.3 | 61.9 | Papp at 18 h, 25 ug/ml [8]: 49.3 nm/s
19 | O=C(CN(Cc1ccccc1)Cc1ccco1)Nc1cccc(Br)c1 | 13.4 | 6.23 | 54.7 | 
20 | CCCCN(CCCc1ccccc1)Cc1ccc2ccccc2c1 | 23 | 0.23 | 89 | viability at 24 h [1]: 85.5%; viability at 24 h [2]: 51.9%; viability at 24 h [5]: 51.2%; IC50 [10]: 0.011 µM; CC50 at 24 h [7]: 34.4 µM; Activity [12]: inactive; Papp at 18 h, 25 ug/ml [8]: 101 nm/s; Time [14]: 14.4 s; Activity [15]: Active
21 | O=C(CN(Cc1ccccc1)Cc1ccco1)Nc1ccccc1F | 14.1 | 8.86 | 50.9 | 
22 | O=C(CN(Cc1ccccc1)Cc1ccco1)Nc1ccc(F)cc1 | 14.5 | 28.3 | 47.1 | 
23 | O=C(CN(Cc1ccccc1)Cc1ccco1)Nc1cccc(F)c1 | 17.3 | 31.7 | 47 | 
24 | O=C(CN(Cc1ccccc1)Cc1ccco1)Nc1ccc(C(F)(F)F)cc1 | 13.4 | 6.8 | 50.9 | 

Row | SMILES | inhibition [3] [%] | IC50 [4] [µM] | inhibition [6] [%] | further results
25 | Cc1ccccc1NC(=O)CN(Cc1ccccc1)Cc1ccco1 | 14.2 | 5.46 | 54.7 | 
26 | COc1cc2c(cc1OC)C(=O)C(CC1CCN(Cc3ccccc3)CC1)C2 (centres undefined) |  |  |  | Activity [16]: Active
27 | C[C@]12CC[C@@H]3c4ccc(O)cc4CC[C@H]3[C@@H]1CC[C@@H]2O [ESTRADIOL] |  |  |  | Papp at 18 h, 25 ug/ml [8]: 146 nm/s
28 | O=C(CN(Cc1ccccc1)Cc1ccco1)Nc1ccccc1Cl | 17.5 | 9.96 | 50.5 | 
29 | N#Cc1ccc(NC(=O)CN(Cc2ccccc2)Cc2ccco2)cc1 | 9.68 | 710 | 28.6 | 
30 | COc1cc(NC(=O)CN(Cc2ccccc2)Cc2ccco2)cc(OC)c1OC | 16.1 | 52.3 | 18.9 | 
31 | CCCCN(CC(=O)Nc1ccccc1C)Cc1ccc2ccccc2c1 | 21.9 | 1.48 | 77.9 | viability at 24 h [2]: 49.1%; viability at 24 h [5]: 83.1%; IC50 [10]: 0.18 µM; CC50 at 24 h [7]: 19 µM; CC50 at 24 h [11]: 70.2 µM; Papp at 18 h, 25 ug/ml [8]: 139 nm/s
32 | O=C(CN(Cc1ccco1)Cc1ccco1)Nc1ccccc1 | 12.6 | 7.81 | 47.3 | 
33 | c1ccc(CCCN(Cc2ccc3ccccc3c2)Cc2ccco2)cc1 | 13.4 | 15.7 | 42.5 | 
34 | Cc1ccccc1NC(=O)CN(Cc1ccco1)Cc1c[nH]c2ccccc12 | 14.2 | 4.39 | 64.7 | 
35 | Cc1ccc(NC(=O)CN(Cc2ccccc2)Cc2ccco2)cc1 | 12.8 | 149 | 37.5 | 
36 | Cc1cccc(NC(=O)CN(Cc2ccco2)Cc2c[nH]c3ccccc23)c1C | 18.2 | 10.9 | 52.3 | 
37 | N#Cc1ccccc1NC(=O)CN(Cc1ccccc1)Cc1ccco1 | 10.3 | 118 | 36.6 | 
38 | O=C(CN(Cc1ccco1)Cc1cccc2ccccc12)Nc1ccccc1 | 19.6 | 21.7 | 47.1 | 
39 | Cc1cccc(NC(=O)CN(Cc2ccccc2)Cc2ccco2)c1C | 19.7 | 2.67 | 61.9 | CC50 at 24 h [9]: 46.8 µM; CC50 at 24 h [7]: 16.6 µM; CC50 at 24 h [11]: 35 µM; Papp at 18 h, 25 ug/ml [8]: 94.7 nm/s; CC50 at 24 h [13]: 32.1 µM
40 | COCCN(CC1CCCN(Cc2ccccc2)C1)S(=O)(=O)c1ccc2ccccc2c1 (centres undefined) |  |  |  | IC50 [17]: > 10 µM
41 | Cc1cccc(NC(=O)CN(Cc2ccco2)Cc2c[nH]c3ccccc23)c1 | 14.3 | 6.61 | 55.2 | 
42 | Cc1cccc(NC(=O)CN(Cc2ccc3ccccc3c2)Cc2ccco2)c1C | 15.3 | 11 | 48.1 | 
43 | CC(C)CN(CCCc1ccccc1)Cc1ccc2ccccc2c1 | 19.4 | 4.04 | 54.7 | viability at 24 h [1]: 155%; viability at 24 h [2]: 86.3%; viability at 24 h [5]: 83.5%; IC50 [10]: 0.024 µM; CC50 at 24 h [7]: 48.7 µM; Papp at 18 h, 25 ug/ml [8]: 98.7 nm/s
44 | Cc1ccccc1NC(=O)CN(Cc1ccc2ccccc2c1)CC(C)(C)C | 19.6 | 4.1 | 64.6 | 
45 | Cc1cccc(NC(=O)CN(Cc2ccc3ccccc3c2)Cc2ccco2)c1 | 15.1 | 1.74 | 70.5 | viability at 24 h [1]: 91.7%; viability at 24 h [2]: 105%; viability at 24 h [5]: 91.4%; CC50 at 24 h [7]: 24.9 µM; Papp at 18 h, 25 ug/ml [8]: 90.7 nm/s
46 | Cc1ccccc1NC(=O)CN(Cc1ccc2ccccc2c1)Cc1ccco1 | 15.9 | 1.22 | 70.6 | viability at 24 h [1]: 69.4%; viability at 24 h [2]: 67.3%; viability at 24 h [5]: 67.1%; CC50 at 24 h [7]: 10.9 µM; Papp at 18 h, 25 ug/ml [8]: 56.7 nm/s
47 | O=C(CN(Cc1ccccc1)Cc1ccco1)Nc1cccc(F)c1F | 18 | 13.3 | 50.1 | 
